Counter-ions that a name gives are not always drawn.

The source of these data is US4382945A, “Tetrahydrothiepino[4,5-d]imidazole derivatives, composition and method of use” (Hoffmann-La Roche Inc., priority 1980, dated 1983).

The subject of assay [1] is Human platelet-rich plasma (collagen-induced blood platelet aggregation). In words: Collagen-induced blood platelet aggregation (aggregometer method of BORN). Type of assay: cell-based. The conditions noted are these: 10 min; human citrated platelet-rich plasma; 37° C., 10 minutes incubation; collagen-fibrils; maximum aggregation velocity as test parameter. On the procedure:
Human platelet-rich plasma was obtained by centrifugation from citrated venous blood. The experiments were carried out with suspensions of the test substances in 0.9% sodium chloride. 0.18 ml of citrate plasma were treated with a 10 μl suspension of the test compounds and incubated at 37° C. for 10 minutes, whereupon the aggregation was initiated by the addition of 10 μl of a suspension of collagen-fibrils.

For a further assay, the system named is Plasma glucose. In words: Antihyperglycemic activity: plasma glucose concentration after oral glucose load in fasted rats. It counts as in vivo. Particulars: percentages of the controls, rats fasted 24 hours, 0.3 mmol/kg p.o., glucose 1.6 g/kg orally 100 minutes later, plasma 20 minutes after glucose, averages. On the procedure: Gum arabic (12 control animals) or 0.3 mmol/kg p.o. of test substance (6 experimental animals) is administered to rats (fasted for 24 hours) and 100 minutes later a suspension of 1.6 g of glucose in 10 ml of 5 percent gum arabic is administered orally per kg body weight. The animals are killed 20 minutes after the glucose administration. Plasma is obtained from the heparinized mixed blood. The glucose concentration in the plasma is determined according to the hexokinase method.

Broadly, the EC50 is the concentration giving half of the maximal effect. The low end stands for higher potency in that assay, the high end for lower potency in that assay. As to `CC1(C)CSCC(C)(C)c2[nH]c(-c3ccc4c(c3)OCO4)nc21` [2-(3,4-Methylenedioxyphenyl)-4,5,7,8-tetrahydro-4,4,8,8-tetramethyl-1-H-thiepino[4,5-d]imidazole hydrochloride], in assay [1], the EC50 was 1.2 µM.

Take `CC1(C)CSCC(C)(C)c2[nH]c(-c3ccc(F)cc3)nc21` [2-(p-Fluorophenyl)-4,5,7,8-tetrahydro-4,4,8,8-tetramethyl-1-H-thiepino-[4,5-d]imidazole hydrochloride]: in assay [1], the midpoint of the response, the EC50, lay at 4.7 µM. In the assay with Plasma glucose, the “Plasma glucose concentration (%)” value is given as 77%.

In assay [1], `CC1(C)CSCC(C)(C)c2[nH]c(-c3ccccc3)nc21` [2-Phenyl-4,5,7,8-tetrahydro-4,4,8,8-tetramethyl-1-H-thiepino[4,5-d]-imidazole hydrochloride] had a half-maximal effective concentration (EC50) of 0.8 µM. Also, the “Plasma glucose concentration (%)” value in the assay with Plasma glucose (listed as 2-Phenyl-4,5,7,8-tetrahydro-4,4,8,8-tetramethyl-1-H-thiepino-8 4,5-d]-imidazole , hydrochloride) turned out to be 67%.

As to `CC1(C)CSCC(C)(C)c2[nH]c(-c3ccccc3)nc21` [2-phenyl-4,5,7,8-tetrahydro-4,4,8,8-tetramethyl-1-H-thiepino[4,5-d]imidazole], the “Plasma glucose concentration (%)” value in the assay with Plasma glucose is 74%.

`COc1ccc(-c2nc3c([nH]2)C(C)(C)CSCC3(C)C)cc1` [2-(p-Methoxyphenyl)-4,5,7,8-tetrahydro-4,4,8,8-tetramethyl-1-H-thiepino-[4,5-d]imidazole hydrochloride] had an EC50 in assay [1] of 4.2 µM.

In the case of `CC1(C)CSCC(C)(C)c2[nH]c(-c3cccs3)nc21` [4,5,7,8-Tetrahydro-4,4,8,8-tetramethyl-2-(2-thienyl)-1-H-thiepino[4,5-d]-imidazole hydrochloride], the midpoint of the response in assay [1], the EC50, lay at 19.7 µM.
